The results in this text go back to patent US20030056788A1, “Partial liquid breathing of fluorocarbons” (priority 1991, published 2003).

A short description of data set [1]: Vapor pressure of fluorocarbons.
The nature of data set [2]: Surface and interfacial tensions and spreading coefficients of perfluorocarbons on saline. Type of data set: physicochemical. Also on record: S(o on w) spreading coefficient: unit: mN/m. The note with it: T = 25 C; for γo/w (interfacial tension oil/water) / S(o on w) spreading coefficient: on saline; for S(o on w) spreading coefficient: S = γw/a − (γw/o + γo/a). From the text:
The ability of a given substance to cover a measured surface area can be described by its spreading coefficient. The spreading coefficients for fluorocarbons can be expressed by the following equation:
S(o on w)=γw/a−(γw/o+γo/a)
Where S (o on w) represents the spreading coefficient; γ=interfacial tension; w/a=water/air; w/o=water/oil; and o/a=oil/air.
Fluorocarbons having spreading coefficients of at least one are particularly preferred. If the spreading coefficient is negative, the compound will tend to remain as a lens on the membrane surface. Adequate coverage of the lung surface is important for restoring oxygen and carbon dioxide transfer and for lubricating the lung surfaces to minimize further pulmonary trauma.
Each perfluorocarbon tested is provided together with its molecular weight and the specific variables that are used to calculate the spreading coefficient S (o on w). The perfluorocarbons reported are PFOB, perfluorotributylamine (FC-17), perfluorodecalin (APF-140), dimethyl perfluorodecalin (APF-175), trimethyl decalin (APF-200), perfluoroperhydrophenanthrene (APF-215), pentamethyl decalin (APF-240), and octamethyl decalin (APF-260).

In data set [3] the test system is rabbits following lung lavage to remove endogenous surfactant. The data set is described as follows: Partial liquid ventilation with PFOB in rabbit model of respiratory insufficiency induced by lung lavage. Format: in vivo, New Zealand rabbits. The note with it: rabbits after lung lavage. How it is done: The following examples provide information relating to the effect of PFOB treatment on respiratory insufficiency in an experimental rabbit model. The general protocol for partial liquid ventilation of the rabbits is described below.
New Zealand rabbits weighing between 2.8 and 3.0 kg were anesthetized with 50 mg/kg of […] sodium iv and a cannula was inserted through a tracheotomy midway along the trachea with its tip proximal to the carina. Ventilation with a Servo ventilator 900C (Siemens-Elema, Sweden) was initiated using pure oxygen and zero end-expiratory pressure with a constant tidal volume of 12 ml/kg, frequency of 30/min and inspiratory time of 35%. Anesthesia was maintained with additional doses of pentobarbital, as required, and pancuronium bromide was administered as an intravenous bolus (0.1 mg/kg) and followed by a continuous infusion (0.1 mg/kg/hr) for muscle paralyzation. A solution of 5% dextrose and 0.45% NaCl was administered continuously at a rate of 10 ml/kg/hr as a maintenance fluid. A heating pad maintained core temperature at 37±1° C., monitored by an esophageal thermistor (Elektroalboratoriet, Copenhagen).
Left femoral artery and vein were each cannulated with polyvinyl catheters for arterial and central venous pressure recording and blood sampling. A special indwelling catheter (Mikro-pO2-Messkatheter, Licox) was inserted into the right femoral artery for continuous oxygen pressure monitoring (Licox, GMS, Germany). Arterial blood gas and Hb (hemoglobin) measurements were made by Osm-2 Hemoximeter and ABL-330 (Radiometer Copenhagen). Lung mechanics and end-tidal CO2 were measured by means of Lung Mechanics Calculator 940 (Siemens-Elema, Sweden) and CO2 Analyzer 930 (Siemens-Elema, Sweden), respectively. Intravascular pressure monitoring was made by using a Statham P23XL transducer (Spectramed, USA) and all tracings including ECG were recorded by a Sirecust 1280 recorder (Siemens).
After the control observations were made, lung lavage with 30 ml/kg of warm saline (37° C.) was performed to induce respiratory insufficiency. After the first lavage, positive end expiratory pressure (PEEP) was increased to 6 cmH2O and lung lavages were repeated to get an arterial pO2 below 100 mmHg with the initial ventilatory settings (between 4-6 lavages). […]
After respiratory insufficiency was induced, PFOB liquid was administered through the tracheal cannula into the animal's lungs with incremental doses of 3 ml/kg up to a total volume of 15 ml/kg. Animals were ventilated for 15 minutes after each dose of PFOB instillation with the same ventillatory settings as mentioned above and thereafter arterial blood gases, cardiocirculatory parameters and pulmonary mechanics were measured. […]

As for `FC(F)(F)C(F)(F)C(F)(F)C(F)(F)C(F)(F)C(F)(F)Br` [1-bromotridecafluorohexane], the “vapor pressure (in words)” value in data set [1] is on record as “relatively high vapor pressures”.
As to `FC1(F)C(F)(F)C(F)(F)C2(F)C(F)(F)C(F)(F)C(F)(F)C(F)(F)C2(F)C1(F)F` (stereo not drawn) [APF-140, perfluorodecalin], in data set [2], the “γo/a (interfacial tension oil/air)” value is recorded as 18.2 mN/m and the “γo/w (interfacial tension oil/water)” value was determined as 55.3 mN/m.
For the molecule `FC1(F)C(F)(F)C(F)(F)C2(F)C(F)(C1(F)F)C(F)(F)C(F)(F)C1(F)C(F)(F)C(F)(F)C(F)(F)C(F)(F)C12F` (stereo not drawn) [APF-215, perfluoroperhydrophenanthrene], in data set [2], the “γo/a (interfacial tension oil/air)” value was found to be 21.6 mN/m, the “γo/w (interfacial tension oil/water)” value came to 56.0 mN/m and the “S(o on w) spreading coefficient” value is −5.6.
For the molecule `FC(F)(F)C(F)(F)C(F)(F)C(F)(F)N(C(F)(F)C(F)(F)C(F)(F)C(F)(F)F)C(F)(F)C(F)(F)C(F)(F)C(F)(F)F` [FC-47, perfluorotributylamine], in data set [2], the “γo/a (interfacial tension oil/air)” value was determined as 17.9 mN/m and the “γo/w (interfacial tension oil/water)” value came out at 55.1 mN/m.
In the case of `FC(F)(F)C(F)(F)C(F)(F)C(F)(F)C(F)(F)C(F)(F)C(F)(F)C(F)(F)Br` [PFOB, 1-bromo-heptadecafluoro-octane], the “arterial oxygen pressure as percent of original (pre-lavage) value” in data set [3] (15 ml/kg PFOB intratracheal, n = 6) turned out to be 83%. The “mean arterial carbon dioxide tension (in words)” value in data set [3] (after PFOB administration, post-lavage level 48.7 mmHg) was “decreased”. Also, the “mean airway pressure (in words)” value in data set [3] (increasing volumes of PFOB) is on record as “decreased mean airway pressure”. For the same molecule, the “arterial oxygen tension (in words)” value in data set [3] (increasing volumes of PFOB 3-15 ml/kg intratracheal, compared to saline treated controls) is “significantly improved the arterial oxygen tension”. Moreover, the vapor pressure in data set [1] (37° C.) is 14 torr. Moreover, in data set [2], the “γo/a (interfacial tension oil/air)” value is listed as 18.0 mN/m and the “γo/w (interfacial tension oil/water)” value was 51.3 mN/m.
dimethyl perfluorodecalin [APF-175]: in data set [2], the “γo/a (interfacial tension oil/air)” value was determined as 20.7 mN/m, the “γo/w (interfacial tension oil/water)” value is 55.9 mN/m and the “S(o on w) spreading coefficient” value was −4.6.
The corresponding values for octamethyl decalin [APF-260] are 22.4 mN/m, 56.1 mN/m and −6.5.
On the same counts, the results for pentamethyl decalin [APF-240] are 22.6 mN/m, 56.3 mN/m and −6.9.
For trimethyl decalin [APF-200], in data set [2], the “γo/a (interfacial tension oil/air)” value is reported as 21.4 mN/m, the “γo/w (interfacial tension oil/water)” value is 55.9 mN/m and the “S(o on w) spreading coefficient” value was −5.3.
